Results as given in patent US20220306647A1, “NOVEL INDOLE-2-CARBOXAMIDES ACTIVE AGAINST THE HEPATITUS B VIRUS (HBV)” (AICURIS GMBH & CO. KG, priority 2019, published 2022).
Read-outs that look alike come from different tables or passages of the source.

Experiments:
HBV (HepAD38 cells) = experiment: HBV replication assay: determination of HBV DNA from the supernatants of HepAD38 cells; assay type: cell-based; details: Hepatitis B virus, 144 h, HBV DNA in HepAD38 supernatant at day 6, qPCR, read-out: Cell activity
In short: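 HepAD38 cells seeded without tetracycline and treated with half-log compound dilutions; tetracycline-treated wells serve as cell control. On day 6, supernatant HBV DNA was purified and quantified by real-time PCR against plasmid standards; EC50 from non-linear regression of relative copy numbers, three experiments in triplicate.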

[1] = target: T1, HBV core protein (C-terminal truncated core protein, 149 amino acids of the N-terminal assembly domain, BODIPY-FL labelled) (UniProt P03146); experiment: Biochemical capsid assembly assay (fluorescence quenching)
T1 construct: fused on or other part: A single cysteine added after residue 149, at position 150; It carries the BODIPY-FL maleimide label
T1 sequence (P03146 whole entry, the tested form may be a part): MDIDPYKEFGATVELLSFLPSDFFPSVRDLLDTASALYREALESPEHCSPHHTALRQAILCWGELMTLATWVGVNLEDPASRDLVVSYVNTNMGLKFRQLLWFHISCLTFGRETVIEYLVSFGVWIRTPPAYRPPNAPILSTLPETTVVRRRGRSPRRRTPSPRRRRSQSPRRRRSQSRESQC
In short: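 Fluorescence quenching of BODIPY-FL-labelled core dimers (1.0 to 2.0 μM) in 50 mM HEPES pH 7.5; compounds at 8 concentrations, 0.5 log-unit dilutions from top 100, 31.6 or 10 μM, 0.5% DMSO. Assembly started with NaCl to […]; fluorescence (ex 477/em 525 nm) read after 6 min. EC50 by non-linear regression.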

[2] = assembly started with NaCl, fluorescence read after 6 min, read-out: Assembly activity
[3] = read-out: Assembly activity, assembly started with NaCl, fluorescence read after 6 min

Compound	EC50 (HBV (HepAD38 cells)) [nM]	IC50 [1, 2] [µM]	IC50 [1, 3] [µM]
Cc1cc(F)cc2[nH]c(C(=O)N3CCc4nn5c(c4C3)C(=O)N(C)C3(CC3)C5)cc12 [Example 88, 12′-(6-fluoro-4-methyl-1H-indole-2-carbonyl)-4′-methyl-4′,7′,8′,12′-tetraazaspiro[cyclopropane-1,5′-tricyclo[7.4.0.0^2,7]tridecane]-1′,8′-dien-3′-one]	< 1000	< 5	
CN(C(=O)c1cnn2c1CN(C(=O)c1cc3ccccc3[nH]1)CC2)C1(c2ccc(C(=O)O)cn2)CC1 [Example 31, 6-{1-[N-methyl-5-(1H-indole-2-carbonyl)-4H,5H,6H,7H-pyrazolo[1,5-a]pyrazine-3-amido]cyclopropyl}pyridine-3-carboxylic acid]	< 100000	< 5	
CN(CCO)C(=O)c1noc2c1CN(C(=O)c1cc3c(F)cc(F)cc3[nH]1)CC2 [Example 23, 5-(4,6-difluoro-1H-indole-2-carbonyl)-N-(2-hydroxyethyl)-N-methyl-4H,5H,6H,7H-[1,2]oxazolo[4,5-c]pyridine-3-carboxamide]	< 1000	< 5	
CN1C(=O)c2c3c(nn2CCC12CC2)CCN(C(=O)c1cc2ccccc2[nH]1)C3 [Example 63, 4′-(1H-indole-2-carbonyl)-13′-methyl-4′, 8′,9′,13′-tetraazaspiro[cyclopropane-1,12′-tricyclo[7.5.0.0^2,]tetradecane]-1′,7′-dien-14′-one]	< 1000	< 5	
CC1Cn2cnc(C(=O)N(C)C3(c4cccc(C(=O)O)c4)CC3)c2CN1C(=O)c1cc2ccccc2[nH]1 (stereo not drawn) [Example 41, 3-{1-[N-methyl-7-(1H-indole-2-carbonyl)-6-methyl-5H,6H,7H,8H-imidazo[1,5-a]pyrazine-1-amido]cyclopropyl}benzoic acid]	1000 to 10000		< 5
CN(C(=O)c1cnn2c1CN(C(=O)c1cc3c(Cl)c(F)ccc3[nH]1)CC2)C1(c2ccc(C(=O)O)cc2)CC1 [Example 80, 4-{1-[N-methyl-5-(4-chloro-5-fluoro-1H-indole-2-carbonyl)-4H,5H,6H,7H-pyrazolo[1,5-a]pyrazine-3-amido]cyclopropyl}benzoic acid]	< 1000	< 5	
Cc1c(F)ccc2[nH]c(C(=O)N3CCn4ncc(C(=O)N(C)C5(c6cccc(C(=O)O)c6)CC5)c4C3)cc12 [Example 35, 3-{1-[N-methyl-5-(5-fluoro-4-methyl-1H-indole-2-carbonyl)-4H,5H,6H,7H-pyrazolo[1,5-a]pyrazine-3-amido]cyclopropyl}benzoic acid]	< 1000		< 5
CN(C(=O)c1cnn2c1CN(C(=O)c1cc3c(Cl)cccc3[nH]1)CC2)C1(c2ncc(C(=O)O)cn2)CC1 [Example 45, 2-{1-[N-methyl-5-(4-chloro-1H-indole-2-carbonyl)-4H,5H,6H,7H-pyrazolo[1,5-a]pyrazine-3-amido]cyclopropyl}pyrimidine-5-carboxylic acid]	1000 to 10000	< 5	
Cc1cccc2[nH]c(C(=O)N3CCn4ncc(C(=O)N(C)C5(c6ccc(C(=O)O)cc6)CC5)c4C3)cc12 [Example 82, 4-{1-[N-methyl-5-(4-methyl-1H-indole-2-carbonyl)-4H,5H,6H,7H-pyrazolo[1,5-a]pyrazine-3-amido]cyclopropyl}benzoic acid]	< 1000		< 5
CN(C(=O)c1[nH]nc2c1CN(C(=O)c1cc3cc(F)c(Cl)cc3[nH]1)CC2)C1(c2ccc(C(=O)O)cc2)CC1 [Example 55, 4-{1-[N-methyl-5-(6-chloro-5-fluoro-1H-indole-2-carbonyl)-2H,4H,5H,6H,7H-pyrazolo[4,3-c]pyridine-3-amido]cyclopropyl}benzoic acid]	1000 to 10000		< 5
CN1C(=O)c2c3c(nn2CC12CC2)CCN(C(=O)c1cc2c(F)c(F)ccc2[nH]1)C3 [Example 85, 12′-(4,5-difluoro-1H-indole-2-carbonyl)-4′-methyl-4′,7′,8′,12′-tetraazaspiro[cyclopropane-1,5′-tricyclo[7.4.0.0^2,7]tridecane]-1′,8′-dien-3′-one]	< 1000	< 5	
CN(C(=O)c1[nH]nc2c1CN(C(=O)c1cc3c(Cl)cccc3[nH]1)CC2)C1(c2ccc(C(=O)O)cc2)CC1 [Example 49, 4-{1-[N-methyl-5-(4-chloro-1H-indole-2-carbonyl)-2H,4H,5H,6H,7H-pyrazolo[4,3-c]pyridine-3-amido]cyclopropyl}benzoic acid]	1000 to 10000	< 5	
